Reference: patent US7371877B2, “Glycerol ester derivative” (FUJIFILM Corporation, priority 2002, dated 2008)

Tests used:
[1] = S9 degradation test; type: in vitro ADME, rats; settings: rat liver S9 Mix, 5 μg/ml, 37° C., HPLC
Method: Six-week old male SD rats (Charles River Japan) were purchased and acclimatized for 1 week. After the acclimatization for 1 week, the rats were weighed and bled by decapitation. The liver was extracted and washed three times with chilled 0.15 M KCl. After the washing, wet weight of the liver was determined, and the liver was added with the three-times weight of chilled 0.15 M KCl and placed in a homogenizer. The liver was homogenized, and the homogenate was centrifuged with cooling at 9000 g for 10 minutes. The supernatant obtained was designated S9 and stored below −80° C.
The stored S9 was thawed in running water. The thawed S9 (0.1 ml) was added with 0.4 M MgCl2 (0.02 ml), 1.65 M KCl (0.02 ml) and 0.2 M Na phosphate buffer (pH 7.4, 0.5 ml), added with glucose-6-phosphate (Oriental Yeast), NADPH (Oriental Yeast) and NADH (Oriental Yeast) so as to give a concentration of 4 μM, and added with distilled water to give a total volume of 1 ml (this solution is referred to as “S9 Mix”). S9 Mix (0.1 ml) was added with a test substance so as to give a concentration of 5 μg/ml and shaken at 37° C. under reciprocal movement. The weight of the test substance (unchanged substance) with passage of time in the S9 Mix was measured by HPLC. The test substance was dissolved in dimethyl sulfoxide (Wako Pure Chemical Industry) beforehand. The results are shown as percentage values of the amount of the unchanged substance after 30 minutes based on the amount of the unchanged substance immediately after the addition to S9 Mix, which is taken as 100%. […]

[2] = system: ICR male mice; test: Toxicity test by continuous administration for three days in mice (MTD); type: in vivo
Method: Six-week old ICR male mice (Charles River Japan) were purchased, and after quarantine for 1 week, acclimatized in a clean animal cage (air-conditioning: HEPA filter of class 1000, room temperature: 20 to 24° C., humidity: 35 to 60%). Then, in order to obtain an MTD value, a liposome preparation was administered from the caudal vein. The liposome preparation was administered by using physiological saline (Hikari Pharmaceutical) or a glucose solution (Otsuka Pharmaceutical) as a solvent. On the basis of the MTD value obtained, the liposome preparation was administered from the caudal vein every three consecutive days in an amount corresponding to ½ of the MTD value (n=3). The symptoms were observed up to 6 hours after each administration, and autopsy was performed after completion of the administration to examine major organs. As a result, no abnormality was recognized. […]

[3] = system: vascular smooth muscle cells; test: Uptake amount of iodine atoms by vascular smooth muscle cells (mixed culture with macrophage); type: cell-based; settings: liposome PC 50 nmol + PS 50 nmol + compound 75 nmol; cultured at 37° C. under 5% CO2 for 24 hours
Method: Dipalmitoyl-PC (Funakoshi, No. 1201-41-0225) and dipalmitoyl-PS (Funakoshi, No. 1201-42-0237) at the ratio shown below were dissolved in chloroform together with each of the iodine compounds of the present invention in an eggplant-shaped flask according to the method described in J. Med. Chem., 25 (12), 1500 (1982) to form a uniform solution. Then, the solvent was evaporated under reduced pressure to form a thin membrane on the bottom of the flask bottom. This thin membrane was dried in vacuum, then added with an appropriate amount of 0.9% physiological saline (Hikari Pharmaceutical, No. 512) and subjected to ultrasonication (No. 3542 probe type oscillator, Branson, 0.1 mW) for 5 minutes to obtain a uniform liposome dispersion. The diameters of the liposomes in the resulting dispersion were measured by using WBC analyzer (A-1042, Nihon Kohden). […] The liposome preparations mentioned below, which were produced by the above method, were each added to a mixed culture system of vascular smooth muscle cells and macrophage described in International Publication WO 01/82977. The cells were cultured at 37° C. under 5% CO2 for 24 hours, and the amounts of the iodine compounds taken up into the vascular smooth muscle cells were each quantified.
In the same manner as in Test Example 1, liposome preparations containing dipalmitoyl-PC (Funakoshi, No. 1201-41-0225) and dipalmitoyl-PS (Funakoshi, No. 1201-42-0237) at the ratio shown below were prepared. […] The liposome preparations produced by the above method were each added to a mixed culture system of vascular smooth muscle cells and macrophage described in International Publication WO 01/82977. The cells were cultured at 37° C. under 5% CO2 for 24 hours, and the amounts of the iodine compounds taken up into the vascular smooth muscle cells were each quantified.

[4] = system: Wistar rats; test: Neurotoxicity test in Wistar rats; type: in vivo; set-up: key to Neurotoxicity (+: present, −: absent): +: present; −: absent
Method: Six-week old male Wistar rats (Charles River Japan) were purchased, and after quarantine for 1 week, acclimatized in a clean animal cage (air-conditioning: HEPA filter of class 1000, room temperature: 20 to 24° C., humidity: 35 to 60%). […]. The liposome preparation was administered by using physiological saline (Hikari Pharmaceutical) or a glucose solution (Otsuka Pharmaceutical) as a solvent.
In the same manner as in Test Example 4, the neurotoxicity test using a Wistar rat was performed.

[5] = system: arteriosclerotic lesions in rat aortas; test: X-ray radiography of rat arteriosclerotic lesion; type: in vivo; settings: liposome preparation, 200 mg/kg from the cervical vein
Method: According to the method described in Invest. Radiol., 18, 275 (1985), arteriosclerotic lesions were formed in rat aortas. The liposome preparation of 1A-4-1 prepared above was carefully administered to the rats with the formed arteriosclerotic lesions were formed from the cervical vein in an amount of 200 mg/kg.
In the same manner as in Test Example 2, the liposome preparation of 1B-1-3 prepared above was carefully administered from the cervical vein to the rats with the formed arteriosclerotic lesions in an amount of 200 mg/kg.

[6] = liposome preparation administered from the caudal vein, ICR male mice
[7] = liposome preparation from the caudal vein, 1/2 of the MTD value, after pentobarbital, observed up to 4 hours

Row | SMILES | amount of the unchanged substance after 30 minutes based on the amount immediately after the addition to S9 Mix (100%) [1] | MTD [2, 6] [mg/kg] | also measured
1 | O=C(CCCCCCCCCCOc1c(I)cc(I)cc1I)OCC(COC(=O)CCCCCCCCCCOc1c(I)cc(I)cc1I)OC(=O)CN1CCOCC1 [Compound 1A-1-3] | 1A-1-3: 63% | 800 | Uptake amount [3]: 49.8 × 10^−3 nmol/μg protein; Neurotoxicity (+: present, −: absent) ([4]; rat, in vivo): (−)
2 | O=C(CCCCCCCCCCOc1c(I)cc(I)cc1I)OCC(COC(=O)CCCCCCCCCCOc1c(I)cc(I)cc1I)OC(=O)CCN1CCOCC1 [Compound 1A-3-1] | 1A-3-1: 58% | – | –
3 | O=C(CCCCCCCCCCOc1c(I)cc(I)cc1I)OCC(COC(=O)CCCCCCCCCCOc1c(I)cc(I)cc1I)OC(=O)CCCN1CCOCC1 [Compound 1A-3-2] | 1A-3-2: 60% | 800 | –
4 | O=C(CCCCCCCCCCOc1c(I)cc(I)cc1I)OCC(COC(=O)CCCCCCCCCCOc1c(I)cc(I)cc1I)OC(=O)CCCCN1CCOCC1 [Compound 1A-3-3] | 1A-3-3: 64% | 1000 | Neurotoxicity (+: present, −: absent) ([4]; rat, in vivo): (−)
5 | O=C(CCCCCCCCCCOc1c(I)cc(I)cc1I)OCC(COC(=O)CCCCCCCCCCOc1c(I)cc(I)cc1I)OC(=O)CCCCCN1CCOCC1 [Compound 1A-3-4] | 1A-3-4: 63% | 1000 | –
6 | O=C(CCCCCCCCCCOc1c(I)cc(I)cc1I)OCC(COC(=O)CCCCCCCCCCOc1c(I)cc(I)cc1I)OC(=O)CCC(=O)N1CCOCC1 [Compound 1A-4-1] | 1A-4-1: 59% | 1000 | X-ray radiography images of arteriosclerotic lesions ([5]; ten minutes after the administration): clearly contrasted images of the arteriosclerotic lesions were obtained; Uptake amount [3]: 31.4 × 10^−3 nmol/μg protein; Neurotoxicity (+: present, −: absent) ([4]; rat, in vivo): (−)
7 | NC(=O)CCC(=O)OC(COC(=O)CCCCCCCCCCOc1c(I)cc(I)cc1I)COC(=O)CCCCCCCCCCOc1c(I)cc(I)cc1I [Compound 1A-4-2] | 1A-4-2: 10% | – | –
8 | CN(C)C(=O)CCC(=O)OC(COC(=O)CCCCCCCCCCOc1c(I)cc(I)cc1I)COC(=O)CCCCCCCCCCOc1c(I)cc(I)cc1I [Compound 1A-4-3] | 1A-4-3: 5% | – | –
9 | O=C(O)CCC(=O)OC(COC(=O)CCCCCCCCCCOc1c(I)cc(I)cc1I)COC(=O)CCCCCCCCCCOc1c(I)cc(I)cc1I [Compound 1A-4-4] | 1A-4-4: 24% | – | MTD ([2]; mouse, in vivo): 800 mg/kg; Neurotoxicity (+: present, −: absent) [4, 7]: (−)
10 | CCOCCOCCOCCOC(=O)CCC(=O)OC(COC(=O)CCCCCCCCCCOc1c(I)cc(I)cc1I)COC(=O)CCCCCCCCCCOc1c(I)cc(I)cc1I [Compound 1A-4-5] | 1A-4-5: 38% | – | MTD ([2]; mouse, in vivo): 800 mg/kg; Neurotoxicity (+: present, −: absent) [4, 7]: (−)
11 | O=C(CCCCCCCCCCOc1c(I)cc(I)cc1I)OCC(COC(=O)CCCCCCCCCCOc1c(I)cc(I)cc1I)OCC(=O)N1CCOCC1 [Compound 1A-5-1] | 1A-5-1: 9% | 800 | Neurotoxicity (+: present, −: absent) ([4]; rat, in vivo): (−)
12 | NC(=O)COC(COC(=O)CCCCCCCCCCOc1c(I)cc(I)cc1I)COC(=O)CCCCCCCCCCOc1c(I)cc(I)cc1I [Compound 1A-5-2] | 1A-5-2: 60% | – | –
13 | CN(C)C(=O)COC(COC(=O)CCCCCCCCCCOc1c(I)cc(I)cc1I)COC(=O)CCCCCCCCCCOc1c(I)cc(I)cc1I [Compound 1A-5-3] | 1A-5-3: 52% | – | –
14 | O=C(O)COC(COC(=O)CCCCCCCCCCOc1c(I)cc(I)cc1I)COC(=O)CCCCCCCCCCOc1c(I)cc(I)cc1I [Compound 1A-5-4] | 1A-5-4: 20% | – | MTD ([2]; mouse, in vivo): 800 mg/kg; Neurotoxicity (+: present, −: absent) [4, 7]: (−)
15 | CN(C)CC(=O)OC(COC(=O)CCCCCCCCCCOc1c(I)cc(I)cc1I)COC(=O)CCCCCCCCCCOc1c(I)cc(I)cc1I [Compound 1A-6-3] | 1A-6-3: 60% | – | –
16 | O=C(CCCCCCCCCCOc1c(I)cc(I)cc1I)OCC(COC(=O)CCCCCCCCCCOc1c(I)cc(I)cc1I)OC(=O)COC(CO)CO [Compound 1A-6-9] | 1A-6-9: 13% | 800 | –
17 | CCOCCOCCOCCOC(COC(=O)CCCCCCCCCCOc1c(I)cc(I)cc1I)COC(=O)CCCCCCCCCCOc1c(I)cc(I)cc1I [Compound 1A-7-3] | 1A-7-3: 5% | – | Uptake amount [3]: 41.8 × 10^−3 nmol/μg protein
18 | O=C(CCCCCCCCCCOc1c(I)cc(I)cc1I)OCC(COC(=O)CCCCCCCCCCOc1c(I)cc(I)cc1I)OCCO [Compound 1A-7-5] | 1A-7-5: 11% | – | Uptake amount [3]: 36.1 × 10^−3 nmol/μg protein
19 | C[N+](C)(C)CCOP(=O)([O-])OC(COC(=O)CCCCCCCCCCOc1c(I)cc(I)cc1I)COC(=O)CCCCCCCCCCOc1c(I)cc(I)cc1I [Compound 1B-1-3] | 1B-1-3: 4% | 2000 | X-ray radiography images of arteriosclerotic lesions ([5]; one minute after the administration): clearly contrasted images of arteriosclerotic lesions were obtained; Uptake amount [3]: 59.8 × 10^−3 nmol/μg protein; Neurotoxicity ([4]; rat, in vivo): no neurotoxicity was observed
